From PubChem BioAssay (NCI) come the findings set out here.

Among the test systems are K-562 leukemia; NCI-H226 lung; MDA-MB-435; SNB-75 CNS; MOLT-4 leukemia; HS 578T breast; SNB-19 CNS; ACHN renal; SF-268 CNS; HCC-2998 colon.
Common to all, as to assay: NCI anticancer screen, dose series, 48 h

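Grown in 96-well plates, cells were treated for 48 hours with each compound at five concentrations. Insufficient inhibition: endpoint recorded as highest concentration tested. GI50 is the concentration that inhibits growth by half. TGI: total growth inhibition.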

For the molecule `CCC[C@H](Nc1nc(-c2ccc(NC(=O)NCC)c(OC)c2)ncc1C)c1cccnc1`, the GI50 in the assay with K-562 leukemia was 0.031 µM; in the assay with NCI-H226 lung, 0.0531 µM; in the assay on MDA-MB-435 it was 0.0219 µM; in the assay on SNB-75 CNS, 0.0489 µM; in the assay on MOLT-4 leukemia, 0.0359 µM; in the assay with HS 578T breast, 0.0345 µM. The GI50 in the assay with SNB-19 CNS was 0.0441 µM; with ACHN renal, 0.0721 µM; in the assay on SF-268 CNS, 0.0534 µM; in the assay with HCC-2998 colon it was 0.0295 µM. The TGI with K-562 leukemia is 16.4 µM; in the assay on NCI-H226 lung it was 25.7 µM; in the assay with MDA-MB-435 it was 0.0533 µM; with SNB-75 CNS, 22.8 µM; with MOLT-4 leukemia, 13.1 µM; in the assay on SNB-19 CNS, greater than 84.8 µM. Moreover, the TGI in the assay with ACHN renal is 35.2 µM; in the assay on SF-268 CNS it was 14.7 µM; with HCC-2998 colon, 0.874 µM.
Regarding `O=C(CSc1nc2sc3c(c2c(=O)n1-c1ccccc1)CCCCC3)N/N=C/c1ccc(F)cc1`, the GI50 with K-562 leukemia was 5.48 µM; in the assay on NCI-H226 lung, 2.09 µM; in the assay with MDA-MB-435, 10.3 µM; with SNB-75 CNS it was 1.85 µM; in the assay on MOLT-4 leukemia it was 9.09 µM; in the assay on HS 578T breast it was 1.01 µM. Further, the GI50 is 3.45 µM in the assay on SNB-19 CNS, 4.76 µM in the assay with ACHN renal, 2.14 µM in the assay with SF-268 CNS and 49.5 µM in the assay on HCC-2998 colon. Besides, the TGI is greater than 100 µM in the assay with K-562 leukemia; 4.84 µM with NCI-H226 lung; greater than 100 µM in the assay with MDA-MB-435; 4.93 µM in the assay on SNB-75 CNS; greater than 100 µM in the assay on MOLT-4 leukemia; 4.96 µM in the assay on HS 578T breast. Also, the TGI with SNB-19 CNS was 13.2 µM; with ACHN renal, 34.6 µM; in the assay on SF-268 CNS it was 6.57 µM; in the assay on HCC-2998 colon it was greater than 100 µM.
Regarding `N#Cc1c(N)nc(N2CCOCC2)c(C#N)c1-c1cccc(O)c1`, the GI50 is greater than 100 µM with K-562 leukemia; greater than 100 µM in the assay on NCI-H226 lung; greater than 100 µM in the assay with MDA-MB-435; 17.2 µM with SNB-75 CNS; greater than 100 µM in the assay with MOLT-4 leukemia; 40.7 µM in the assay with HS 578T breast. The GI50 in the assay with SNB-19 CNS was greater than 100 µM; in the assay with SF-268 CNS, greater than 100 µM; with HCC-2998 colon, 68.5 µM. The TGI is greater than 100 µM with K-562 leukemia; greater than 100 µM in the assay with NCI-H226 lung; greater than 100 µM with MDA-MB-435; 70.6 µM in the assay with SNB-75 CNS; greater than 100 µM in the assay with MOLT-4 leukemia; greater than 100 µM in the assay on HS 578T breast. Further, the TGI in the assay on SNB-19 CNS, in the assay on SF-268 CNS and with HCC-2998 colon was greater than 100 µM throughout.
Consider `COc1ccc2c(c1)/C(=C/c1c(-c3ccc(C)cc3)nc3sc(C)cn13)C(=O)N2`, for which the GI50 is 4.95 µM in the assay on K-562 leukemia; 20.1 µM with NCI-H226 lung; 19 µM in the assay on MDA-MB-435; 11.8 µM in the assay on SNB-75 CNS; 19.8 µM in the assay with HS 578T breast; 20.6 µM with SNB-19 CNS. Further, the GI50 with SF-268 CNS is 11.1 µM; with HCC-2998 colon, 13.4 µM. The TGI is greater than 100 µM in the assay with K-562 leukemia; 95.9 µM with NCI-H226 lung; greater than 100 µM in the assay with MDA-MB-435; greater than 100 µM with SNB-75 CNS; greater than 100 µM in the assay with HS 578T breast; greater than 100 µM in the assay on SNB-19 CNS. Further, the TGI in the assay on SF-268 CNS is greater than 100 µM; in the assay with HCC-2998 colon, 43.7 µM.
For the molecule `Nc1c(C(=O)Nc2cccc3ccccc23)sc2nc3c(cc12)CCCCC3`, the GI50 with K-562 leukemia is 0.216 µM; in the assay on NCI-H226 lung, 7.58 µM; in the assay on MDA-MB-435, 0.116 µM; with SNB-75 CNS, 0.161 µM; in the assay on MOLT-4 leukemia, 0.418 µM; with HS 578T breast it was 0.35 µM. Moreover, the GI50 with SNB-19 CNS is 0.662 µM; with ACHN renal, 2.59 µM; in the assay on SF-268 CNS, 2.82 µM; with HCC-2998 colon, 2.41 µM. The TGI was greater than 50 µM in the assay with K-562 leukemia; greater than 50 µM with NCI-H226 lung; 0.32 µM in the assay with MDA-MB-435; greater than 50 µM with SNB-75 CNS; greater than 50 µM with MOLT-4 leukemia; greater than 50 µM in the assay on HS 578T breast. For the same molecule, the TGI with SNB-19 CNS, in the assay with ACHN renal, in the assay with SF-268 CNS and with HCC-2998 colon was greater than 50 µM throughout.
For the molecule `C[C@@H](Oc1cc(-c2cnn(C3CC4(CCNCC4)C3)c2)cnc1N)c1c(F)ccc(Cl)c1Cl`, the GI50 in the assay with K-562 leukemia was 0.228 µM; in the assay on NCI-H226 lung, 2.51 µM; with MDA-MB-435, 1.06 µM; in the assay with SNB-75 CNS it was 1.32 µM; with MOLT-4 leukemia it was 1.29 µM; in the assay with HS 578T breast it was 1.37 µM. Besides, the GI50 in the assay with SNB-19 CNS is 4.29 µM; in the assay with ACHN renal it was 2 µM; in the assay with SF-268 CNS, 1.64 µM; in the assay with HCC-2998 colon, 1.42 µM. Besides, the TGI in the assay on K-562 leukemia came out at 1.4 µM; in the assay on NCI-H226 lung it was 17.5 µM; in the assay on MDA-MB-435, 2.39 µM; in the assay on SNB-75 CNS it was 2.92 µM; in the assay with MOLT-4 leukemia, 5.82 µM; in the assay on HS 578T breast, 4.15 µM. Further, the TGI in the assay on SNB-19 CNS came out at 18.1 µM; with ACHN renal, 7.54 µM; with SF-268 CNS, 4.71 µM; with HCC-2998 colon it was 3.1 µM.
Regarding `O=c1[nH]cnc2c1nnn2[C@@H]1O[C@H](CO)[C@@H](O)[C@H]1O`, the GI50 with K-562 leukemia was 3.7 µM; with NCI-H226 lung, 30.1 µM; in the assay on MDA-MB-435, 6.26 µM; with SNB-75 CNS, 3.22 µM; in the assay on MOLT-4 leukemia it was 1.96 µM; in the assay on HS 578T breast it was 17.6 µM. For the same molecule, the results for the GI50 in the assay with ACHN renal, in the assay on SF-268 CNS and with HCC-2998 colon were 2.87 µM, 28.9 µM and 4.33 µM, respectively. For the same molecule, the TGI with K-562 leukemia is greater than 100 µM; in the assay with NCI-H226 lung, greater than 100 µM; in the assay on MDA-MB-435, greater than 100 µM; in the assay with SNB-75 CNS, greater than 100 µM; in the assay on MOLT-4 leukemia it was 22.9 µM; with HS 578T breast it was greater than 100 µM. For the same molecule, the TGI in the assay on ACHN renal, in the assay with SF-268 CNS and in the assay on HCC-2998 colon was greater than 100 µM throughout.
